Source: patent US5108747A, “Stable oxpenem-3-carboxylic acids as beta-lactamase inhibitors” (Bayer Aktiengesellschaft, priority 1988, dated 1992)
Entries after “also recorded” stand apart in the source; their conditions may differ. Structures can show the parent of a compound that is named as a salt. Where two headings read alike, the source gives them in different places. One block for each compound: values may come before it.

Key:
[1] = Hydrolysis half life at pH 7.4, 37° C. in aqueous phosphate buffer (UV spectroscopy; measure of the stability); type: physicochemical; details: for half-life: aqueous phosphate buffer
Staph. aureus DSM 1104 = test: agar diffusion test, Staph. aureus DSM 1104; type: cell-based, Staphylococcus aureus
Method: The compound IIIe designated as preferred in earlier patent applications (for example in EP 18,305) hydrolyzes in a few minutes and could never be transported efficiently by the blood vessel (pH 7.4, 37° C.) to the site of action undamaged. […] Using Staphylococcus aureus DSM 1104, only an inhibition halo of a few mm was determined in the agar diffusion test after applying 250 μg of IIIe.
(§1) Certain representatives are just as effective against gram-positive as against gram-negative bacteria and resistant bacteria.

bacteria [2] = test: antibacterial activity in vitro; type: cell-based
[3] = cited from earlier work
similar bacteria = details: 25 μg applied, J. Amer. Chem. Soc. 100, 8004 (1978); cited from earlier work
[4] = test system: Beta lactamase from Pseudomonas aeruginosa W; test: Degradation of mezlocillin by beta lactamase from Pseudomonas aeruginosa W and its prevention (agar hole test); type: biochemical
Method: (§2) Methods: the degradation of mezlocillin was determined with Streptococcus pyogenes W using the agar hole test, the sensitivity limits of which are below 1 mcg/ml.
(§3) Degradation of mezlocillin by beta lactamase and prevention of this degradation by oxapenem "O"

[5] = test system: Staphylococcus aureus 25, 455/1; test: Decrease in the colony-forming capacity of Staphylococcus aureus 25, 455/1 in liquid nutrient medium; type: cell-based; details: control 3.5 × 10^8
Method: The colony-forming capacity of the bacteria was determined by plating out the bacteria on OXOID Iso Sensitest Agar. The two methods are international standard methods.
Synergistic effect of the combination. Decrease in the colony-forming capacity of Staphylococcus aureus 25, 455/1 by the action of mezlocillin in liquid nutrient medium.

[6] = target: T1, Beta lactamase from E. coli 4787 TEM 1 (Escherichia coli, UniProt P62593); test: Degradation of mezlocillin by beta lactamase from E. coli 4787 TEM 1 and its prevention (agar hole test); type: biochemical; details: without oxapenem
T1 construct: preparation not described in the excerpts
Method: as §2, §3

Staph. aureus 012484/77 = test: agar diffusion test, Staph. aureus 012484/77 (penicillin- and cephalosporin-resistant); type: cell-based, Staphylococcus aureus
Source text: as §1

[7] = test system: Escherichia coli DSM 1103; test: agar diffusion test, Escherichia coli DSM 1103; type: cell-based
Source text: as §1

[8] = test system: Escherichia coli W 3110 R6K (TEM 1); test: agar diffusion test, Escherichia coli W 3110 R6K (TEM 1) (β-lactamase-forming); type: cell-based
intact bacteria = details: antibacterial activity or synergism with ampicillin; Morin and Gorman, page 383; cited from earlier work
[9] = target: cephalosporinase of E. cloacae 908 R (Enterobacter cloacae, UniProt P05364); test: in vitro inhibition of the cephalosporinase of E. cloacae 908 R; type: biochemical; details: relative to formiminothienamycin
Source text: A particular advantage of the oxapenem-3-carboxylic acids according to the invention is that in addition to the abovementioned properties of β-lactamase inhibition they are also themselves antibacterially active per se. It is true that substances having similar properties are known, for example formiminothienamycin (Lit.: Recent Advances in the Chemistry of β-Lactam Antibiotics, ed. by G.I. Gregory, The Royal Society, London, page 279 (1981)). However, the compounds according to the invention show a more rapid, more progressive and more irreversible inhibition of the lactamases with many clinically relevant bacteria. Thus, for example, the cephalosporinase of E. cloacae 908 R is inhibited 780 times more effectively in vitro by the 2-tert-butyl-6-hydroxymethyloxapenem-3-carboxylic acid K salt according to the invention than by formiminothienamycin.

[10] = test system: isolated bacterial enzymes (β-lactamases); details: cited from earlier work
bacteria [11] = details: literature; cited from earlier work

T1 sequence (P62593 24-286 limits assumed): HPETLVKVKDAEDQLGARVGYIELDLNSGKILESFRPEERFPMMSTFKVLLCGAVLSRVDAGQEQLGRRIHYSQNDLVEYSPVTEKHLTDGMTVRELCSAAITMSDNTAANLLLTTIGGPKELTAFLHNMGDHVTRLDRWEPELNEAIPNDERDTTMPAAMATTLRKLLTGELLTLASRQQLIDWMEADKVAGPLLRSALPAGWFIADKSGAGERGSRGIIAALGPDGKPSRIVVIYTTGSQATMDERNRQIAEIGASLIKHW
cephalosporinase of E. cloacae 908 R, sequence (P05364 21-381): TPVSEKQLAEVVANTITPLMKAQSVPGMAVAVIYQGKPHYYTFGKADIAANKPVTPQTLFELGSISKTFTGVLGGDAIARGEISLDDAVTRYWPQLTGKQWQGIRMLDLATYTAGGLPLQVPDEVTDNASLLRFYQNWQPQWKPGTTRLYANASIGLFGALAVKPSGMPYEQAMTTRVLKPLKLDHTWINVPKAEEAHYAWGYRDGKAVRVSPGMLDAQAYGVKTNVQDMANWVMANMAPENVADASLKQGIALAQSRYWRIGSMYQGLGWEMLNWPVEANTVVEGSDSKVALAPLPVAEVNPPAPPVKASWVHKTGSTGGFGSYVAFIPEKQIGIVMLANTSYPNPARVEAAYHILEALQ

half-life [1]: 1.17 h
Structure (SMILES): CCC1=C(C(=O)O)N2C(=O)C(C)(C)C2O1 (stereo not shown) [Compound IIIc]

half-life [1]: 0.833 h
Structure (SMILES): CC1=C(C(=O)O)N2C(=O)C(C)(C)C2O1 (stereo not shown) [Compound IIId]

Structure (SMILES): CC1=C(C(=O)O)N2C(=O)CC2O1 (stereo not shown) [IIIe]
inhibition halo (in words) (Staph. aureus DSM 1104; 250 μg applied): a few mm
Hydrolysis half life (in words) [1]: a few minutes
antibacterial efficacy (in words) (bacteria [2]): virtually ineffective antibacterially

Structure (SMILES): C[C@@H](O)[C@H]1C(=O)N2C(C(=O)O)=C(SCCN)C[C@H]12 [thienamycin]
stability (in words) ([3]; literature): very sensitive to hydrolysis
inhibition halo diameter (similar bacteria): 28-41 mm

Structure (SMILES): CC1(C)S[C@@H]2[C@H](NC(=O)[C@H](NC(=O)N3CCN(S(C)(=O)=O)C3=O)c3ccccc3)C(=O)N2[C@H]1C(=O)O [mezlocillin]
Mezlocillin remaining ([4]; reaction time 0 min, without oxapenem): 100 µg/mL
Mezlocillin remaining ([4]; reaction time 30 min, without oxapenem): 35 µg/mL
Mezlocillin remaining ([4]; reaction time 60 min, without oxapenem): 0 µg/mL
Number of colonies after an action time of 6 hrs ([5]; 2.0 mcg alone): 1.0 × 10^6 N/ml
Mezlocillin remaining ([6]; reaction time 0 min): 100 µg/mL
Mezlocillin remaining ([6]; reaction time 30 min): 65 µg/mL
Mezlocillin remaining ([6]; reaction time 60 min): 43 µg/mL
Mezlocillin remaining ([6]; reaction time 240 min): 0 µg/mL

half-life [1]: 30 h
Structure (SMILES): CC(C)(C)C1=C(C(=O)O)N2C(=O)C(C)(C)C2O1 (stereo not shown) [Compound IIIa, 2-tert-butyl-6.6-dimethyl-1-oxaoen-2-em-3-carboxylic acid]

Structure (SMILES): O=C(O)[C@H]1/C(=C/CO)O[C@@H]2CC(=O)N21 [clavulanic acid]
Mezlocillin remaining ([4]; reaction time 0 min, with 1 mcg of inhibitor): 100 µg/mL
Mezlocillin remaining ([4]; reaction time 0 min, with 10 mcg of inhibitor): 100 µg/mL
Mezlocillin remaining ([4]; reaction time 30 min, with 1 mcg of inhibitor): 40 µg/mL
Mezlocillin remaining ([4]; reaction time 30 min, with 10 mcg of inhibitor): 27 µg/mL
Mezlocillin remaining ([4]; reaction time 60 min, with 1 mcg of inhibitor): 0 µg/mL
Mezlocillin remaining ([4]; reaction time 60 min, with 10 mcg of inhibitor): 0 µg/mL
Number of colonies after an action time of 6 hrs ([5]; 0.1 mcg alone): 1.0 × 10^8 N/ml

Structure (SMILES): CC1(C)S[C@@H]2[C@H](NC(=O)COc3ccccc3)C(=O)N2[C@H]1C(=O)O [Penicillin V]
zone of inhibition at 130 µg/disc (Staph. aureus DSM 1104; Staphylococcus aureus, DSM1104, read-out: inhibition halo diameter): 42 mm
inhibition (in words) (Staph. aureus 012484/77; 130 μg applied): not inhibited
zone of inhibition at 130 µg/disc ([7]; DSM1103, read-out: inhibition halo diameter): 13 mm
inhibition (in words) ([8]; 130 μg applied): not inhibited

Structure (SMILES): CCC1=C(C(=O)O)N2C(=O)CC2O1 (stereo not shown) [potassium salt of 2-ethyl-1-oxapenem-3-carboxylic acid]
testability against intact bacteria (in words) (intact bacteria): too unstable for testing the antibacterial activity or the synergism with ampicillin against intact bacteria; also recorded: too unstable for testing synergism with ampicillin against intact bacteria

half-life [1]: 2 h
Structure (SMILES): CC(C)C1=C(C(=O)O)N2C(=O)C(C)(C)C2O1 (stereo not shown) [Compound IIIb]

Structure (SMILES): CC(C)(C)C1=C(C(=O)O)N2C(=O)C(CO)C2O1 (stereo not shown) [2-tert-butyl-6-hydroxymethyloxapenem-3-carboxylic acid K salt]
inhibited times more effectively than by formiminothienamycin [9]: 780 times

Structure (SMILES): CC(C)(C)C1=C(C(=O)O)N2C(=O)C[C@H]2O1 [2-tert-butyl-1-oxapen-2-em-3-carboxylic acid]
zone of inhibition at 200 µg/disc (Staph. aureus DSM 1104; Staphylococcus aureus, DSM1104, 200 μg applied, read-out: inhibition halo diameter): 45 mm
zone of inhibition at 200 µg/disc (Staph. aureus 012484/77; Staphylococcus aureus, 012484/77, 200 μg applied, read-out: inhibition halo diameter): 47 mm
zone of inhibition at 200 µg/disc ([7]; DSM1103, 200 μg applied, read-out: inhibition halo diameter): 41 mm

Structure (SMILES): CCC1=C(C(=O)O)N2C(=O)C[C@H]2O1 [2-ethyl-1-oxapen-2-em-3-carboxylic acid]
inhibition of isolated bacterial enzymes (β-lactamases) (in words) [10]: Only an inhibition of isolated bacterial enzymes (β-lactamases) was detectable
stability in aqueous medium (in words) ([3]; aqueous medium): far too unstable in aqueous medium for antibacterial testing
antibacterial efficacy (in words) (bacteria [11]): virtually ineffective as an antibiotic

Structure (SMILES): CC(C)(C)C1=C(C(=O)O)N2C(=O)C(CO)C2O1 (stereo not shown) [3-tert-butyl-6-hydroxymethyl-7-oxo-4-oxa-1-azabicyclo[3.2.0]hept-2-ene-2-carboxylic acid]
zone of inhibition at 10 µg/disc (Staph. aureus DSM 1104; Staphylococcus aureus, DSM1104, 10 μg applied, read-out: inhibition halo diameter): 30 mm
zone of inhibition at 10 µg/disc (Staph. aureus 012484/77; Staphylococcus aureus, 012484/77, 10 μg applied, read-out: inhibition halo diameter): 32 mm
zone of inhibition at 10 µg/disc ([7]; DSM1103, 10 μg applied, read-out: inhibition halo diameter): 30 mm
zone of inhibition at 10 µg ([8]; Escherichia coli, read-out: inhibition halo diameter): 29 mm
